In brackets after ≈: the same amount, converted by molar mass.
Test: Solubility of ketoprofen/dexamethasone owing to encapsulation in the polymers
Details: water

C[C@@H]1C[C@H]2[C@@H]3CCC4=CC(=O)C=C[C@]4(C)[C@@]3(F)[C@@H](O)C[C@]2(C)[C@@]1(O)C(=O)CO [Dexamethasone]
solubility: 90 µg/mL (≈ 229 µM)

— patent publication US20170130052A1, “A POLYMER BASED ON A MALTODEXTRIN FOR ENCAPSULATING ORGANIC COMPOUNDS” (ROQUETTE ITALIA S.P.A., priority 2014, published 2017)
